Experimental data: the NIST ThermoML archive (doi:10.1021/je9001416)

What was measured:
[1] = xn = mol fraction of the nth substance listed; conditions: 303.15 K, 101 kPa, Liquid
[2] = refractive index (Na D-line) (dimensionless); xn = mol fraction of the nth substance listed; conditions: 303.15 K, 101 kPa, Liquid, Standard Abbe refractometry
[3] = excess molar enthalpy (molar enthalpy of mixing); xn = mol fraction of the nth substance listed; conditions: 303.15 K, 101 kPa, Liquid, Flow calorimetry

CC(C)CC(C)(C)C [2,2,4-trimethylpentane] + CC(C)OC(C)C
x2 = 0
Conditions | mass density [kg/m3] | refractive index
[1] | 684.1 | –
[2] | – | 1.3865

CC(C)CC(C)(C)C [2,2,4-trimethylpentane] + CCO
Conditions | mass density, [1] [kg/m3] | refractive index, [2]
x2 = 0 | 684.1 | 1.3865
x2 = 0.0498 | – | 1.38633
x2 = 0.061 | 685.45 | –
x2 = 0.0992 | – | 1.38632
x2 = 0.1201 | 687.2 | –
x2 = 0.1997 | – | 1.38482
x2 = 0.2363 | 691.81 | –
x2 = 0.2998 | – | 1.38404
x2 = 0.3467 | 697.27 | –
x2 = 0.4005 | – | 1.38109
x2 = 0.453 | 703.74 | –
x2 = 0.499 | – | 1.37746
x2 = 0.5525 | 711.14 | –
x2 = 0.5999 | – | 1.37322
x2 = 0.6502 | 720.18 | –
x2 = 0.7 | – | 1.36851
x2 = 0.7431 | 730.88 | –
x2 = 0.8001 | – | 1.36386
x2 = 0.8322 | 744.05 | –
x2 = 0.8999 | – | 1.36145
x2 = 0.9176 | 760.58 | –
x2 = 0.9508 | – | 1.35789
x2 = 0.9599 | 770.78 | –

CC(C)OC(C)C [diisopropyl ether] + CC(C)CC(C)(C)C
Conditions | excess molar enthalpy [kcal/mol] | mass density [kg/m3] | refractive index
[1], x1 = 0.0614 | – | 685.5 | –
[1], x1 = 0.1204 | – | 686.92 | –
[1], x1 = 0.2365 | – | 689.82 | –
[1], x1 = 0.3486 | – | 692.78 | –
[1], x1 = 0.4525 | – | 695.6 | –
[1], x1 = 0.5542 | – | 698.54 | –
[1], x1 = 0.6497 | – | 701.45 | –
[1], x1 = 0.7437 | – | 704.5 | –
[1], x1 = 0.8322 | – | 707.61 | –
[1], x1 = 0.9187 | – | 710.76 | –
[1], x1 = 0.9598 | – | 712.33 | –
[1], x1 = 1 | – | 713.78 | –
[2], x1 = 0.0614 | – | – | 1.38505
[2], x1 = 0.1204 | – | – | 1.38372
[2], x1 = 0.2365 | – | – | 1.38115
[2], x1 = 0.3486 | – | – | 1.37862
[2], x1 = 0.4525 | – | – | 1.37619
[2], x1 = 0.5542 | – | – | 1.37383
[2], x1 = 0.6497 | – | – | 1.37172
[2], x1 = 0.7437 | – | – | 1.36963
[2], x1 = 0.8322 | – | – | 1.36774
[2], x1 = 0.9187 | – | – | 1.36596
[2], x1 = 0.9598 | – | – | 1.36512
[2], x1 = 1 | – | – | 1.36425
[3], x1 = 0.0577 | 0.00932 | – | –
[3], x1 = 0.1144 | 0.0178 | – | –
[3], x1 = 0.1702 | 0.0253 | – | –
[3], x1 = 0.2252 | 0.0316 | – | –
[3], x1 = 0.2793 | 0.0368 | – | –
[3], x1 = 0.3326 | 0.041 | – | –
[3], x1 = 0.385 | 0.0441 | – | –
[3], x1 = 0.4367 | 0.0461 | – | –
[3], x1 = 0.4875 | 0.0471 | – | –
[3], x1 = 0.5376 | 0.0472 | – | –
[3], x1 = 0.587 | 0.0462 | – | –
[3], x1 = 0.6356 | 0.0443 | – | –
[3], x1 = 0.6835 | 0.0415 | – | –
[3], x1 = 0.7307 | 0.038 | – | –
[3], x1 = 0.7772 | 0.0337 | – | –
[3], x1 = 0.823 | 0.0284 | – | –
[3], x1 = 0.8682 | 0.0223 | – | –
[3], x1 = 0.9128 | 0.0156 | – | –
[3], x1 = 0.9567 | 0.00795 | – | –

CC(C)OC(C)C [diisopropyl ether] + CCO
Conditions | excess molar enthalpy [kcal/mol] | mass density [kg/m3] | refractive index
[1], x1 = 0.0495 | – | 776.55 | –
[1], x1 = 0.0994 | – | 771.45 | –
[1], x1 = 0.2002 | – | 762.41 | –
[1], x1 = 0.2997 | – | 754.04 | –
[1], x1 = 0.4003 | – | 746.63 | –
[1], x1 = 0.5012 | – | 740.01 | –
[1], x1 = 0.6012 | – | 734.1 | –
[1], x1 = 0.7018 | – | 728.75 | –
[1], x1 = 0.804 | – | 723.6 | –
[1], x1 = 0.8996 | – | 718.96 | –
[1], x1 = 0.9505 | – | 716.37 | –
[1], x1 = 1 | – | 713.78 | –
[2], x1 = 0.0495 | – | – | 1.35854
[2], x1 = 0.0994 | – | – | 1.35989
[2], x1 = 0.2002 | – | – | 1.36147
[2], x1 = 0.2997 | – | – | 1.36232
[2], x1 = 0.4003 | – | – | 1.36325
[2], x1 = 0.5012 | – | – | 1.36309
[2], x1 = 0.6012 | – | – | 1.36285
[2], x1 = 0.7018 | – | – | 1.36225
[2], x1 = 0.804 | – | – | 1.36246
[2], x1 = 0.8996 | – | – | 1.36213
[2], x1 = 0.9505 | – | – | 1.36303
[2], x1 = 1 | – | – | 1.36425
[3], x1 = 0.0212 | 0.0024 | – | –
[3], x1 = 0.0437 | 0.00524 | – | –
[3], x1 = 0.0676 | 0.00902 | – | –
[3], x1 = 0.0931 | 0.0136 | – | –
[3], x1 = 0.1204 | 0.0189 | – | –
[3], x1 = 0.1497 | 0.0251 | – | –
[3], x1 = 0.1811 | 0.0321 | – | –
[3], x1 = 0.215 | 0.0399 | – | –
[3], x1 = 0.2516 | 0.0483 | – | –
[3], x1 = 0.2912 | 0.0574 | – | –
[3], x1 = 0.3343 | 0.0661 | – | –
[3], x1 = 0.3813 | 0.0761 | – | –
[3], x1 = 0.4328 | 0.086 | – | –
[3], x1 = 0.4894 | 0.0958 | – | –
[3], x1 = 0.5521 | 0.104 | – | –
[3], x1 = 0.6217 | 0.11 | – | –
[3], x1 = 0.6995 | 0.113 | – | –
[3], x1 = 0.7871 | 0.105 | – | –
[3], x1 = 0.8864 | 0.0783 | – | –

CCO [ethanol] + CC(C)CC(C)(C)C
x1 = 1
Conditions | mass density [kg/m3] | refractive index
[1] | 781.99 | –
[2] | – | 1.35733

CCO [ethanol] + CC(C)OC(C)C
x2 = 0
Conditions | mass density [kg/m3] | refractive index
[1] | 781.99 | –
[2] | – | 1.35733
